# Experimental data reported in patent EP0244363A1, “Composition and method to inhibit the growth of organisms by the use of bis-biguanido hexanes and essential oil mixture combinations” (WARNER-LAMBERT COMPANY, priority 1986, dated 1987).
# Read-outs that look alike come from different tables or passages of the source.
# Key:
# Experiment in all cases: Minimal growth inhibitory concentration (MIC), serial dilution in broth, agent alone
# Format in all cases: cell-based
# [1] = tested on: Candida albicans ATCC 18804; settings: Experiment 7, C. Albicans, chlorhexidine as free base concentration
# Description: (§1) MINIMAL GROWTH INHIBITORY CONCENTRATION
# (§2) The minimal inhibitory concentration (MIC) of the test compound is the minimum concentration of compound required to inhibit growth of the test organism. The MIC is determined by serially diluting the test solution through tubes of sterile broth. The tubes are inoculated and incubated at 37°C for 48 hours. At the end of the incubation time, growth is checked macroscopically. The lowest concentration of test compound to inhibit growth is the MIC.
# [2] = tested on: Streptococcus sanguis ATCC 19558; settings: Experiment 5, S. sanguis, chlorhexidine as free base concentration
# Description: as §1, §2
# [3] = tested on: Actinomyces viscosus T14V; settings: Experiment 6, A. viscosus, chlorhexidine as free base concentration
# Description: as §1, §2
# [4] = tested on: Streptococcus mutans ATCC 25175; settings: for MIC in w/w%: chlorhexidine as free base concentration; for MIC: Streptococcus mutans, ATCC25175, 48 h, read-out: MIC (micro g/ml)
# Description: as §1, §2
# [5] = Experiments A-D, agent alone, 37°C, 48 hours
smiles,measurement,setting,value
"[H]/N=C(\N/C(=N/[H])NCCCCCCNC(=N)NC(=N)Nc1ccc(Cl)cc1)Nc1ccc(Cl)cc1 [Chlorhexidine, 1,6-di(p-chlorophenylbiguanido)hexane]",MIC (w/w%),[1],3.5x10^-4 w/w%
same,MIC (w/w%),[2],3.4x10^-4 w/w%
same,MIC (w/w%),[3],4.4x10^-5 w/w%
same,MIC in w/w%,"[4]; Experiment 1, agent alone, 37°C, 48 hours",2.2x10^-5 w/w%
same,MIC in w/w%,"[4]; Experiment 2, agent alone, 37°C, 48 hours",2.2x10^-5 w/w%
same,MIC in w/w%,"[4]; Experiment 3, agent alone, 37°C, 48 hours",2.8x10^-5 w/w%
same,MIC in w/w%,"[4]; Experiment 4, agent alone, 37°C, 48 hours",2.25x10^-5 w/w%
same,MIC,[4]; [5],0.25 µg/mL
CC12CCC(CC1)C(C)(C)O2 [Eucalyptol],MIC,[4]; [5],58 µg/mL
CC1CCC(C(C)C)C(O)C1 (stereo not drawn) [Menthol],MIC,[4],30 µg/mL
COC(=O)c1ccccc1O [Methyl Salicylate],MIC,[4],35 µg/mL
Cc1ccc(C(C)C)c(O)c1 [Thymol],MIC,[4]; [5],80 µg/mL
